Reference: patent publication US20220362168A1, “ADMINISTRATION REGIMES OF CANNABINOIDS IN COMBINATION WITH CHEMOTHERAPEUTICS AGAINST CANCER” (priority 2019, published 2022)
Entries after “also recorded” stand apart in the source; their conditions may differ.

How the values were obtained:
[1] = test system: circulating tumour cells (CTCs); assay: Circulating tumour cell test before and after treatment; assay type: in vivo, human; details: for Circulating tumour cells (CTCs): CBD only
Experimental: (§1) The majority of the patients were assessed using a circulating tumour cell test before and after treatment, since this is cheaper than carrying out repeated scans. A number of patients however, as a matter of a normal treatment course, had relevant scans.

[2] = test system: adenocarcinoma cancer cell line; assay: Cell viability by cell counting with trypan blue (Example 2); assay type: cell-based; details: 0.1, 1 or 10 μM, 48 h, FIG. 1
From the text: An adenocarcinoma cancer cell line, growing exponentially, was reset at a concentration of 1×10^4/ml and allowed to adhere overnight.

[3] = Side effects / tolerated dose in patients; assay type: in vivo, human; details: cancer patients, up to 30 mg twice a day; maximum tolerated dose unable to be defined
From the text: (§2) The minimum duration of treatment required for CBD was six months, but many continued for longer. Less than six months appeared inadequate and had little effect, and therefore cases in which CBD was used for less than six months have been defined as un-assessable, and not included in the current cohort of 119 cases.

[4] = test system: tumour; assay: Scans and examination of tumour in individual patients; assay type: in vivo, human
Experimental: as §1
Clear objective evidence of potential efficacy was sought where no other treatment option was available. The most impressive case was a patient with an anaplastic ependymoma, a very rare brain tumour. The patient had had all standard treatments, surgery on two occasions followed by chemotherapy and conformal photon radiotherapy. No further treatment options were available to them when treatment on CBD started.
Another impressive case was a patient with progressive tanycytic ependymoma Grade 2, treated with biopsy and radical radiotherapy for two years. They refused chemotherapy, and had no further treatment options. They started on pharmaceutical-grade synthetic CBD a year after radiotherapy ended, at a dose of 10 drops twice a day, three days on and three days off (10 mg). Prior to this they had been taking, for some time, metformin, mebendazole, doxycycline and atorvastatin from an oncology clinic in Central London.
At that point the patient stopped taking pharmaceutical-grade synthetic CBD and switched to Cannabis oil extract obtained from an internet website. […] They have since restarted pharmaceutical-grade synthetic CBD and throughout continued to take the metformin, atorvastatin, doxycycline and mebendazole. So, the only change had been stopping the pharmaceutical-grade synthetic CBD and switching to Cannabis oil extract obtained on the Internet.

[5] = test system: pERK; assay: pERK western blotting relative to GAPDH (Example 3); assay type: cell-based; details: 100 nM, 1 μM or 10 μM, 48 h, FIG. 2, higher levels of CBD
Experimental: An adenocarcinoma cell line, growing exponentially, was reset at a concentration of 1×10^4/ml and allowed to adhere overnight. Cannabidiol (CBD) was added at 100 nM, 1 μM, or 10 μM, and cells were harvested for standard western blotting techniques after 48 h. Immunoprobing was performed using anti-pERK antibodies, and the densities of each band determined. These values were then expressed relative to a GAPDH loading control.

[6] = test system: cancer patients; assay: Clinical outcome of 119 cancer patients given synthetic pharmaceutical-grade CBD; assay type: in vivo, human; details: for Extended median survival / Stable disease / Died / No effect/result / Slowed progression / Tumour free: number of patients
Experimental: Patients were given synthetic, pharmaceutical-grade CBD (STI Pharmaceuticals), registered under the Pharmaceutical Specials scheme in oily drops at 5% (w/v) in 20 ml bottles. Each drop contained 1 mg of synthetic CBD in neutral oil. This was prescribed on an informed consent basis. 119 cancer patients decided to have this treatment (Table 1), and most of them had metastatic cancers. Of the 119 patients, 28 were given CBD as the only treatment.
as §1
The average dose was 10 mg twice a day. For increased tumour mass, the dose was increased, in some cases up to 30 drops twice a day (30 mg). In a number of cases where stable disease was present, the dose was reduced to five drops twice a day (5 mg). In some cases, Sativex, which is licensed for use in multiple sclerosis, was used in conjunction with CBD as a source of THC, which synergises with CBD. A fraction of the dose used for multiple sclerosis was used. […] Some of the patients reverted to Cannabis oil bought on the Internet, and following this, 80% of these cases relapsed.
as §2

[7] = Glioblastoma multiforme, 7 total cases
[8] = Miscellaneous cancers, 15 total cases
[9] = Non-Hodgkin's lymphoma, 8 total cases
[10] = Non-small cell lung, 2 total cases
[11] = Total of all cancer types, 119 total cases

With `C=C(C)[C@@H]1CCC(C)=C[C@H]1c1c(O)cc(CCCCC)cc1O` [CBD, cannabidiol] the “Circulating tumour cells (CTCs), first tests” value ([1]; 62/female breast cancer, CBD as only treatment, when first seen) was “tests which showed 10.6 cells per 7.5 ml. Subsequent tests 9 months later, 12 months later, two years later and”, the “Circulating tumour cells (CTCs)” value ([1]; 62/female breast cancer, 9 months later) was 7.3 cells/7.5 ml and the “Circulating tumour cells (CTCs)” value ([1]; 62/female breast cancer, 12 months later) was 6.8 cells/7.5 ml. The “Circulating tumour cells (CTCs)” value ([1]; 67/female lobular breast cancer, 12 months later) was 7.5 cells/7.5 ml, the “Circulating tumour cells (CTCs)” value ([1]; 67/female lobular breast cancer, 18 months later) was 6.8 cells/7.5 ml and the “Circulating tumour cells (CTCs)” value ([1]; 67/female lobular breast cancer, 30 months later) was 3.0 cells/7.5 ml. For the same compound, the “Circulating tumour cells (CTCs), initial” value ([1]; 67/female lobular breast cancer, initial) was “method of treatment. Initial CTCs were 9.3 cells per 7.5 ml. Follow-up measurements 12 months later, 18 months”, the “Circulating tumour cells (CTCs), initial” value ([1]; 72/male prostate cancer, initial value before CBD effect) was 8.1 cells/7.5 ml and the “Circulating tumour cells (CTCs)” value ([1]; breast cancer, three years later) was 3.9 cells/7.5 ml. The “Circulating tumour cells (CTCs)” value ([1]; breast cancer, two years later) was 5.0 cells/7.5 ml, the “Circulating tumour cells (CTCs), first reduction” value ([1]; patient prostate cancer, CBD alone 10 mg twice a day, three days on/off) was 5.9 cells/7.5 ml and the “Viability of cancer cells” value [2] was “inactive; also recorded: unaffected”. For the same compound, the Side effects [3] was “complete absence of side effects”, the “Tumour diameter in left breast” value ([4]; 65/female breast cancer, initially 15 cm, CBD plus half course of radiotherapy, last appointment) was “treatment course. They have continued on CBD alone and on their last appointment the tumour in their left breast was 2 cm” and the Axillary nodes ([4]; 65/female breast cancer, initially palpable left axillary nodes, last appointment) was “cm in diameter, with no palpable axillary nodes”. The Subsequent scans ([4]; 68/female breast cancer with bone metastases, CBD following local radiotherapy) was “subsequent scans showed stable disease. They have had no treatment other than CBD following radiotherapy”, the Subsequent scans ([4]; person, anaplastic ependymoma, CBD only treatment) was “disease stability” and the “Decrease of tumour volume (scan)” value ([4]; person, anaplastic ependymoma, CBD only treatment, after ten months) was about 60%. The Scan result ([4]; person, tanycytic ependymoma Grade 2, 10 mg twice a day three days on/off, six months) was “tumour reduction”, the “pERK relative to controls” value [5] was “increased” and the Clinical status ([6]; 62/female breast cancer, CBD only, no symptoms) was “currently stable”. For the same compound, the Time to death ([6]; 65/female oesophageal cancer, CBD only treatment, expected survival of three months) was “weight. They died 14 months later”, the Clinical condition ([6]; 65/female oesophageal cancer, CBD only treatment, six months later, regained weight) was “treatments and investigations. We last saw their six months later when they were looking well and had in fact regained” and the Extended median survival ([6]; Anaplastic ependymoma, 3 total cases) was 3. It also gave an Extended median survival ([6]; Bladder, 2 total cases) of 1, a Stable disease ([6]; Bladder, 2 total cases) of 1 and a Died ([6]; Breast, 39 total cases) of 6. For the same compound, the Extended median survival ([6]; Breast, 39 total cases) was 8, the No effect/result ([6]; Breast, 39 total cases) was 3 and the Slowed progression ([6]; Breast, 39 total cases) was 3. The Stable disease ([6]; Breast, 39 total cases) was 21, the Tumour free ([6]; Breast, 39 total cases) was 7 and the “Effect of short treatment duration” value ([6]; CBD used for less than six months) was “little effect”. For the same compound, the Died ([6]; Colorectal, 13 total cases) was 6, the Extended median survival ([6]; Colorectal, 13 total cases) was 9 and the No effect/result ([6]; Colorectal, 13 total cases) was 1. For the same compound, the Slowed progression ([6]; Colorectal, 13 total cases) was 1, the Tumour free ([6]; Colorectal, 13 total cases) was 1 and the Extended median survival ([6]; DIPG, 1 total case) was 1. For the same compound, the Died [6, 7] was 3, the Extended median survival [6, 7] was 4 and the Tumour free ([6]; Head and Neck, 2 total cases) was 1. For the same compound, the Died [6, 8] was 1, the Extended median survival [6, 8] was 5 and the No effect/result [6, 8] was 1. It also gave a Slowed progression [6, 8] of 1, a Stable disease [6, 8] of 6 and a Tumour free [6, 8] of 2. For the same compound, the Stable disease ([6]; Neuroendocrine, 1 total case) was 1, the Died [6, 9] was 1 and the Stable disease [6, 9] was 6. For the same compound, the Tumour free [6, 9] was 1, the Died [6, 10] was 2 and the Extended median survival [6, 10] was 2. The Died ([6]; Ovarian, 6 total cases) was 3, the Extended median survival ([6]; Ovarian, 6 total cases) was 5 and the Slowed progression ([6]; Ovarian, 6 total cases) was 1. It also gave a Died ([6]; Pancreatic, 4 total cases) of 2, an Extended median survival ([6]; Pancreatic, 4 total cases) of 2 and a Died ([6]; Prostate, 16 total cases) of 3. The Extended median survival ([6]; Prostate, 16 total cases) was 3, the Stable disease ([6]; Prostate, 16 total cases) was 10 and the Died [6, 11] was 27. It also gave an Extended median survival [6, 11] of 43, a No effect/result [6, 11] of 5 and a Slowed progression [6, 11] of 8. The Stable disease [6, 11] was 45, the Tumour free [6, 11] was 12 and the “Clinical effectiveness of dosing pattern” value ([6]; three days on and three days off versus continuous dose) was “more effective”.
